Each structure is given as a SMILES string.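 Following 48 hours of exposure in 96-well plates, responses at five concentrations were used to interpolate endpoints linearly. GI50 is the concentration that inhibits growth by half.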 Activity calls are given as the source filed them. No stated cut-off is given here; in the data, active = GI50 up to about 1.1 µM and inactive = higher. A value given as a limit tells only on which side of the number the result lay.

Holding throughout (experiment): NCI anticancer screen, dose series, 48 h
Experiment [1] relates to SNB-78.
In experiment [2] the test system is M19-MEL.
Experiment [3] has as its system LXFL 529.
Experiment [4] relates to XF498.
Experiment [5] concerns HOP-18.
In experiment [6] the test system is DLD-1.
For experiment [7], the system named is BT-549.
Experiment [8] deals with KM-20L2.
Experiment [9] deals with RXF 631.

For `N/C(S)=N/N=C/c1ncccc1O`, the GI50 in [1] was 81.8 µM (inactive); in experiment [2] it was 1.91 µM (inactive); in experiment [3], 2.75 µM (inactive); in [4] it was 1.51 µM (inactive); in experiment [5] it was 2.25 µM (inactive); in experiment [6], 2.26 µM (inactive). For the same molecule, the figures for the GI50 in experiment [7] and in [8] were 3.47 µM (inactive) and 1.39 µM (inactive), respectively.
Consider `N=C(N)NC(=N)Nc1ccc(S(=O)(=O)O)cc1`, for which the GI50 in [7] was > 100 µM (inactive).
Consider `CO[C@@H]1[C@H](O)CC[C@]2(CO2)[C@H]1[C@@]1(C)O[C@@H]1CC=C(C)C`, for which the GI50 in experiment [7] is > 200 µM (inactive).
Regarding `CC1S/C(=N/c2nnc(-c3ccccc3)o2)NC1=O` (configuration not stated), the GI50 in experiment [7] is 71.4 µM (inactive).
On to `CC(=O)c1ccc(NC(=O)/C(Cc2ccccn2)=N/NC(=O)C[N+](C)(C)C)cc1`, for which the GI50 in [1], in experiment [2], in experiment [3], in experiment [9], in [5] and in [6] was > 100 µM (inactive) in each case. In addition, the GI50 in experiment [8] is > 100 µM (inactive).
Regarding `COc1c2cc(C(C)(C)C)cc1CSCc1cc(C(C)(C)C)cc(c1OC)CCCCC2`, the GI50 in experiment [7] is 21.6 µM (inactive).
On the same count and under the same terms, for `c1cncc(CSc2ncnc3[nH]cnc23)c1` the value was > 100 µM (inactive).
As to `Cc1c2cccc-2c2cc(O)c3ccccc3c2n1-c1ccc(N(C)C)cc1`, in experiment [7], the GI50 was 10.7 µM (inactive).
On to `O=C1OS2(OC(=O)c3cccc4cccc2c34)c2ccccc21` (configuration not stated), for which the GI50 in experiment [7] is > 100 µM (inactive).
As for `COC(=O)/C=C(\S/C(=N\n1cc(C(=O)OC)c(C(=O)OC)c1-c1ccc(C)cc1)c1ccc(C)cc1)C(=O)OC`, the GI50 in experiment [7] is 7.23 µM (inactive).
For `O=C(NCCNCCNCCNC(=O)c1cc(-c2ccccc2)nc2ccccc12)c1cc(-c2ccccc2)nc2ccccc12`, the GI50 in experiment [7] is 7.52 µM (inactive).
For the molecule `CC(C)OP(=O)(OC(C)C)/C(N)=N/Nc1ccc([N+](=O)[O-])cc1`, the GI50 in experiment [1] is 50.7 µM (inactive); in experiment [2], > 100 µM (inactive); in experiment [3], 66.2 µM (inactive); in experiment [4], 23.5 µM (inactive); in [6], > 100 µM (inactive); in experiment [8], > 100 µM (inactive).
For `Cc1ccc(S(=O)(=O)NC(=O)NNc2ccc(F)cc2)cc1`, the GI50 in experiment [7] was > 31.6 µM (inactive).
As to `Cc1nnc2n(c1=O)CCCN2C`, in experiment [7], the GI50 was > 100 µM (inactive).
With `CC[n+]1c(/C=C/c2ccc(N(CCCl)CCCl)cc2)ccc2cc(NC(=O)/C=C/c3ccccc3)ccc21`, the GI50 was 1.51 µM (inactive) in [1]; 0.439 µM (active) in [2]; 0.357 µM (active) in experiment [3]; 0.205 µM (active) in experiment [4]; 2.62 µM (inactive) in experiment [5]; 0.628 µM (active) in [6]. For the same molecule, the values for the GI50 in experiment [7] and in [8] were 0.628 µM (active) and 0.483 µM (active), respectively.
For `Nc1ccc2c(O)cc(O)nc2n1`, in [7], the GI50 is > 100 µM (inactive).
With `[N-]=[N+]=NC1C2CC3C4CC5CC3[C@H](C2)C(C5)C41` (some centres not stated), the GI50 in experiment [2] was > 100 µM (inactive); in experiment [3], > 100 µM (inactive); in [4], > 100 µM (inactive); in experiment [5], 17.1 µM (inactive); in experiment [6], > 100 µM (inactive).
As for `Nc1nc(Cl)c(CO)c(NCC2(CO)CC(CCc3ccccc3)C2)n1` (configuration not stated), the GI50 in experiment [7] was 15.4 µM (inactive).
As for `OC1(c2ccc(-c3ccccc3)cc2)c2ccccc2C2=NCCN21` (configuration not stated), in [7], the GI50 is > 100 µM (inactive).
Consider `Cc1c(C)c(C)c(-n2[nH]c(=O)n(C)c2=O)c(C)c1C`, for which, in experiment [7], the GI50 is > 100 µM (inactive).
As to `O=S(=O)(c1cc(Cl)ccc1Cl)N1CCN(c2ccc(Cl)c(Cl)c2)CC1`, the GI50 in experiment [7] is 33.3 µM (inactive).
Regarding `O=C(O)[C@H](c1ccccc1)[C@@H](C(=O)O)c1ccccc1`, the GI50 in [7] is > 100 µM (inactive).
Regarding `Nc1nc(N)c2nc(CN(C=O)c3ccc(C(=O)O)cc3)cnc2n1`, in [7], the GI50 is > 26.6 µM (inactive).
Same read-out and setting: for `O=c1oc2ccc3ccccc3c2cc1-c1nc2ccccc2s1` the value was > 100 µM (inactive).
In the case of `c1ccc(C2N3CCCCC3[C@@H]3c4[nH]c5ccccc5c4CCN23)nc1` (some centres not stated), the GI50 in experiment [1] is 49.7 µM (inactive); in [2] it was > 100 µM (inactive); in experiment [3], > 100 µM (inactive); in [9], > 100 µM (inactive); in experiment [5], > 100 µM (inactive); in experiment [6] it was > 100 µM (inactive). In experiment [8], the GI50 was > 100 µM (inactive).
As for `COC(=O)C1C(C(=O)OC)C2(OC(c3ccc(Cl)cc3)=CC2=O)C12OC(c1ccc(Cl)cc1)=CC2=O` (configuration not stated), the GI50 in experiment [7] was 16.4 µM (inactive).
For `CC(=O)OC1CC2C(=O)C(=O)C1(C)C2(C)C` (configuration not stated), in experiment [7], the GI50 is > 100 µM (inactive).
Consider `CC(C)(Cl)C(Cl)CC/C(CBr)=C(\Cl)CCl` (configuration not stated), for which the GI50 in experiment [7] is 1.84 µM (inactive).
On to `CC(C)c1cccc(C(C)C)c1NC(=O)/C(CC(=O)CC(c1ccccc1)c1c(O)c2ccccc2oc1=O)=N/O` (configuration not stated), for which, in experiment [7], the GI50 is > 100 µM (inactive).
Regarding `CN1C(c2ccccc2)=CC(=O)C(O)=C(c2ccccc2)S1(=O)=O`, the GI50 in experiment [7] is > 100 µM (inactive).
Turning to `COc1ccc(-c2cn3ccsc3n2)cc1`, the GI50 is > 100 µM (inactive) in experiment [1]; > 100 µM (inactive) in experiment [2]; > 100 µM (inactive) in experiment [3]; > 100 µM (inactive) in [5]; > 100 µM (inactive) in [6]; 57.8 µM (inactive) in [8].
Turning to `COc1cc(C(=O)OCCn2[nH]c(-c3ccc(Cl)cc3)nc2=S)cc(OC)c1OC`, the GI50 in [7] is 31.3 µM (inactive).
On to `c1cc2c3ccsc3c3sccc3c2s1`, for which the GI50 in experiment [7] is > 100 µM (inactive).
Still for that read-out and setting: next, `CC(C(=O)ON1C(=O)CCC1=O)c1ccc(C(=O)c2ccccc2)s1` (configuration not stated): > 100 µM (inactive).
Consider `COC(=O)C(C(=O)C(=O)Nc1ccc([N+](=O)[O-])cc1)c1nc2cc(C)c(C)cc2nc1O` (configuration not stated), for which the GI50 in experiment [1], in [2], in experiment [3], in experiment [4], in experiment [5] and in [6] was > 100 µM (inactive) each time. Further, in [8], the GI50 was > 100 µM (inactive).
Regarding `CN(C)/C=N/C1CCC(C(C)(C)C)CC1` (configuration not stated), the GI50 in experiment [7] is 18.5 µM (inactive).
As to `C1CSCCSCCS1`, in [7], the GI50 was > 100 µM (inactive).
In the case of `O=C(/C=C(\O)C(=O)O)/C=C(\O)c1ccccc1`, the GI50 in [1] is > 100 µM (inactive); in experiment [2], > 4.65 µM (inactive); in experiment [3], > 4.65 µM (inactive); in experiment [4], > 100 µM (inactive); in experiment [5] it was 1 µM (active); in [6], > 4.65 µM (inactive). Further, in [8], the GI50 was > 4.65 µM (inactive).
`FC(F)(F)P1C2C=CC(CC2)C1(F)F` (configuration not stated): the GI50 in [1], in experiment [2], in [3], in experiment [4], in [5] and in [6] was > 100 µM (inactive) throughout. Besides, in [8], the GI50 was > 100 µM (inactive).
For the molecule `O=C(CC(=O)Nc1ccccc1O)Nc1ccccc1O`, the GI50 in experiment [1] is > 100 µM (inactive); in experiment [2] it was 15 µM (inactive); in [3], 8.91 µM (inactive); in experiment [9] it was 9.79 µM (inactive); in [5], 19.4 µM (inactive); in experiment [6] it was 12.5 µM (inactive). Also, the GI50 in experiment [8] was 22.9 µM (inactive).
Take `Cc1cc2sc(C)[n+](CCCOS(=O)(=O)[O-])c2cc1C`: the GI50 in [7] was > 100 µM (inactive).
On the same count and under the same terms, next, `CC1(C)OCC2OC(n3cnc4c(N)nc(Cl)nc43)C(OS(C)(=O)=O)C2O1` (configuration not stated): > 100 µM (inactive).
Take `COc1ccc(C2SC(=N)Nc3c2c(C)nn3C(=O)c2ccccc2O)cc1OC` (configuration not stated): the GI50 in experiment [7] was 8.91 µM (inactive).
Same read-out and setting: for `Cc1[nH]c2ccccc2c1-c1cc(-c2cc(-c3c(C)[nH]c4ccccc34)nc(N)n2)nc(N)n1` the value was > 100 µM (inactive).
Turning to `Cc1nn(C)c(=O)c2nn(-c3ccccc3)c(C)c12`, the GI50 in experiment [1], in experiment [2], in [3], in experiment [5], in experiment [6] and in experiment [8] was > 100 µM (inactive) each time.
With `NC(=O)C#CC#CC#CCO`, the GI50 in [1] is 2.86 µM (inactive); in [2], 1.81 µM (inactive); in experiment [3], 1.14 µM (inactive); in [5] it was 1.82 µM (inactive); in [6], 0.807 µM (active); in experiment [8], 3.89 µM (inactive).
In the case of `CC(=O)O[C@H]1C(=O)[C@@]2(C)[C@H]([C@H](OC(=O)c3ccccc3)[C@]3(O)C[C@H](OC(=O)[C@H](O)[C@@H](NC(=O)C(C)(C)C)c4ccccc4)C(C)=C1C3(C)C)[C@]1(OC(C)=O)CO[C@@H]1C[C@@H]2O`, in experiment [7], the GI50 was 0.342 µM (active).
`CNc1ccc([N+](=O)[O-])c2c(NCCCN(C)C)ccnc12`: the GI50 in experiment [1] was 7.8 µM (inactive); in [2], > 100 µM (inactive); in [4] it was > 100 µM (inactive); in experiment [8], > 100 µM (inactive).
Take `CC(=O)CC(=O)Nn1c(-c2cccs2)nc2ccc(I)cc2c1=O`: the GI50 in [7] is > 35.9 µM (inactive).
With `CC1(C)[C@@H]2C[C@H]1[C@@H](Cc1cccc(C[C@H]3c4cc(-c5ccccn5)ncc4[C@H]4C[C@@H]3C4(C)C)c1)c1cc(-c3ccccn3)ncc12`, the GI50 in experiment [7] was > 100 µM (inactive).
As for `CCOC(=O)C1=C(C#N)S(=O)(=O)c2c(oc(C)c2C)N1`, the GI50 in experiment [7] is > 100 µM (inactive).
Take `O=C(O)C1CCCN1Cc1cc2ccccc2c2ccccc12` (configuration not stated): the GI50 in [7] is > 100 µM (inactive).
Still for that read-out and setting: next, `C#CCNC(CCCNC(=N)N)C(=O)O` (configuration not stated): > 100 µM (inactive).
`CN(C)/C=N\c1nc(=O)n(C2CCC(CO)O2)cc1F` (configuration not stated): the GI50 in experiment [1] is 95.9 µM (inactive); in experiment [3] it was > 100 µM (inactive); in experiment [4], > 100 µM (inactive); in experiment [5] it was > 100 µM (inactive); in [6], > 100 µM (inactive); in experiment [8], > 100 µM (inactive).
Regarding `O=C1C(NS(=O)(=O)c2ccccc2)=C(N(Cc2ccccc2)Cc2ccccc2)C(=O)c2ccccc21`, the GI50 in [7] was 16.9 µM (inactive).

Values taken from ChEMBL document CHEMBL1201862, “PubChem BioAssay data set” (2004).
